Experimental data taken from patent US20180256673A1, “METHODS FOR TREATING FUNGAL INFECTIONS” (priority 2015, published 2018).
In brackets after ≈: the same amount, converted by molar mass. Read-outs that look alike come from different tables or passages of the source. Starred links: 1 amine or outer side, 2 acyl side, 3 side chain; linkers in the order of their positions; H or OH if unused. Positions of bridges follow the written chain, without caps; N, C: chain ends. Non-standard residues stand in square brackets, D forms with d. Residues, ends and D or L forms follow the SMILES beside them. *: point of attachment. pTerphenylCO(4''-OnC5H11) = CCCCCOc1ccc(-c2ccc(-c3ccc(C(=O)*)cc3)cc2)cc1; Orn(4R-OH,5R-OH) = O=C([C@H](C[C@@H](O)[C@@H](O)N[*:3])N[*:1])[*:2]; hTyr(3S-OH,4S-OH) = N[C@H](C(=O)O)[C@H](O)[C@@H](O)c1ccc(O)cc1; Pro(3S-OH,4S-Me) = C[C@H]1CN[C@H](C(=O)O)[C@H]1O; Hyp = O=C(O)[C@@H]1C[C@@H](O)CN1

How the values were obtained:
Candida glabrata = assay: microbe, parasite or virus in culture; format: cell-based
[1] = tested on: C. albicans vaginal isolates; assay: Susceptibility testing of VVC clinical isolates at pH 7 and 4 (CLSI M27-A3); format: cell-based, Candida albicans; conditions: Candida albicans
Candida krusei = assay: Broth microdilution of invasive fungal isolates (CLSI M27-A3/M38-A2); format: cell-based
C. krusei ATCC 6258 = assay: microbe, parasite or virus in culture; format: cell-based, Candida krusei; conditions: for MIC: Pichia kudriavzevii
Candida dubliniensis = assay: Broth microdilution of invasive fungal isolates (CLSI M27-A3/M38-A2); format: cell-based
[2] = tested on: C. glabrata ATCC 90030, ATCC 2001; assay: Broth microdilution MIC (CLSI), Examples 3 and 4; conditions: Nakaseomyces glabratus
Method: Antifungal susceptibility testing. Candida strains were cultured aerobically at 35° C. on SDA plates or in RPMI 1640 broth (pH 7.0). […] MIC assays were performed in triplicate.

Structure (SMILES): CCCCCOc1ccc(-c2ccc(-c3ccc(C(=O)N[C@H]4C[C@@H](O)[C@@H](O)NC(=O)[C@@H]5[C@@H](O)[C@@H](C)CN5C(=O)[C@H]([C@@H](C)O)NC(=O)[C@H]([C@H](O)[C@@H](O)c5ccc(O)cc5)NC(=O)[C@@H]5C[C@@H](O)CN5C(=O)[C@H]([C@@H](C)O)NC4=O)cc3)cc2)cc1 [ANID, anidulafungin] ({pTerphenylCO(4''-OnC5H11)}-[Orn(4R-OH,5R-OH)]T[Hyp][hTyr(3S-OH,4S-OH)]T[Pro(3S-OH,4S-Me)]; lactam 1-C)
- Cumulative % of isolates inhibited at MIC 0.015 μg/mL (Candida glabrata): (1.0) %
- Cumulative % of isolates inhibited at MIC 0.03 μg/mL (Candida glabrata): (12.0) %
- Cumulative % of isolates inhibited at MIC 0.06 μg/mL (Candida glabrata): (74.0) %
- Cumulative % of isolates inhibited at MIC 0.12 μg/mL (Candida glabrata): (95.0) %
- Cumulative % of isolates inhibited at MIC 0.25 μg/mL (Candida glabrata): (95.0) %
- Cumulative % of isolates inhibited at MIC 0.5 μg/mL (Candida glabrata): (95.0) %
- Cumulative % of isolates inhibited at MIC 1 μg/mL (Candida glabrata): (95.0) %
- Cumulative % of isolates inhibited at MIC 2 μg/mL (Candida glabrata): (98.0) %
- Cumulative % of isolates inhibited at MIC 4 μg/mL (Candida glabrata): (100.0) %
- Cumulative % of isolates inhibited at MIC ≤0.008 μg/mL (Candida glabrata): (1.0) %
- Number of isolates inhibited at MIC 0.015 μg/mL (Candida glabrata): 0
- Number of isolates inhibited at MIC 0.03 μg/mL (Candida glabrata): 11
- Number of isolates inhibited at MIC 0.06 μg/mL (Candida glabrata): 62
- Number of isolates inhibited at MIC 0.12 μg/mL (Candida glabrata): 21
- Number of isolates inhibited at MIC 0.25 μg/mL (Candida glabrata): 0
- Number of isolates inhibited at MIC 0.5 μg/mL (Candida glabrata): 0
- Number of isolates inhibited at MIC 1 μg/mL (Candida glabrata): 0
- Number of isolates inhibited at MIC 2 μg/mL (Candida glabrata): 3
- Number of isolates inhibited at MIC 4 μg/mL (Candida glabrata): 2
- Number of isolates inhibited at MIC ≤0.008 μg/mL (Candida glabrata): 1
- MIC50 (Candida glabrata; Nakaseomyces glabratus, read-out: MIC50): 0.06 µg/mL (≈ 0.0526 µM)
- MIC90 (Candida glabrata; Nakaseomyces glabratus, read-out: MIC90): 0.12 µg/mL (≈ 0.105 µM)
- MIC (Candida glabrata; Nakaseomyces glabratus, read-out: MIC according to CLSI method): 2 µg/mL (≈ 1.75 µM)
- MIC (Candida glabrata; Nakaseomyces glabratus, read-out: MIC results): 2 to 4 µg/mL (≈ 1.75 to 3.51 µM)
- MIC according to CLSI method (Candida glabrata; listed as ANF): 4 µg/mL (≈ 3.51 µM)
- MIC90 ([1]; 24 h, pH 4): 0.03 µg/mL (≈ 0.0263 µM)
- MIC90 ([1]; 24 h, pH 7): 0.008 µg/mL (≈ 0.00702 µM)
- MIC90 ([1]; 48 h, pH 4): 0.06 µg/mL (≈ 0.0526 µM)
- MIC ([1]; 48 h, pH 4, fluconazole-resistant isolate 1, pH 4): 0.03 µg/mL (≈ 0.0263 µM)
- MIC ([1]; 48 h, pH 4, fluconazole-resistant isolate 2, pH 4): 0.03 µg/mL (≈ 0.0263 µM)
- MIC ([1]; 48 h, pH 4, fluconazole-resistant isolate 3, pH 4): 0.03 µg/mL (≈ 0.0263 µM)
- MIC ([1]; 48 h, pH 4, fluconazole-resistant isolate 4, pH 4): 0.06 µg/mL (≈ 0.0526 µM)
- MIC ([1]; 48 h, pH 4, fluconazole-resistant isolate 5, pH 4): 0.125 µg/mL (≈ 0.11 µM)
- MIC ([1]; 48 h, pH 4, fluconazole-resistant isolate 6, pH 4): 0.06 µg/mL (≈ 0.0526 µM)
- MIC ([1]; 48 h, pH 4, fluconazole-resistant isolate 7, pH 4): 0.06 µg/mL (≈ 0.0526 µM)
- MIC ([1]; 48 h, pH 4, fluconazole-resistant isolate 8, pH 4): 0.06 µg/mL (≈ 0.0526 µM)
- MIC ([1]; 48 h, pH 4, fluconazole-resistant isolate 9, pH 4): 0.25 µg/mL (≈ 0.219 µM)
- MIC ([1]; 48 h, pH 4, fluconazole-resistant isolate 10, pH 4): 0.06 µg/mL (≈ 0.0526 µM)
- MIC90 ([1]; 48 h, pH 7): 0.03 µg/mL (≈ 0.0263 µM)
- MIC ([1]; 48 h, pH 7, fluconazole-resistant isolate 1, pH 7): 0.008 µg/mL (≈ 0.00702 µM)
- MIC ([1]; 48 h, pH 7, fluconazole-resistant isolate 2, pH 7): 0.03 µg/mL (≈ 0.0263 µM)
- MIC ([1]; 48 h, pH 7, fluconazole-resistant isolate 3, pH 7): 0.008 µg/mL (≈ 0.00702 µM)
- MIC ([1]; 48 h, pH 7, fluconazole-resistant isolate 4, pH 7): 0.008 µg/mL (≈ 0.00702 µM)
- MIC ([1]; 48 h, pH 7, fluconazole-resistant isolate 5, pH 7): 0.016 µg/mL (≈ 0.014 µM)
- MIC ([1]; 48 h, pH 7, fluconazole-resistant isolate 6, pH 7): 0.008 µg/mL (≈ 0.00702 µM)
- MIC ([1]; 48 h, pH 7, fluconazole-resistant isolate 7, pH 7): 0.008 µg/mL (≈ 0.00702 µM)
- MIC ([1]; 48 h, pH 7, fluconazole-resistant isolate 8, pH 7): 0.008 µg/mL (≈ 0.00702 µM)
- MIC ([1]; 48 h, pH 7, fluconazole-resistant isolate 9, pH 7): 0.125 µg/mL (≈ 0.11 µM)
- MIC ([1]; 48 h, pH 7, fluconazole-resistant isolate 10, pH 7): 0.008 µg/mL (≈ 0.00702 µM)
- Cumulative % of isolates inhibited at MIC 0.015 μg/mL (Candida krusei; 16 isolates): 6.2%
- Cumulative % of isolates inhibited at MIC 0.03 μg/mL (Candida krusei; 16 isolates): (43.8) %
- Cumulative % of isolates inhibited at MIC 0.06 μg/mL (Candida krusei; 16 isolates): (100.0) %
- Number of isolates inhibited at MIC 0.015 μg/mL (Candida krusei; 16 isolates): 1
- Number of isolates inhibited at MIC 0.03 μg/mL (Candida krusei; 16 isolates): 6
- Number of isolates inhibited at MIC 0.06 μg/mL (Candida krusei; 16 isolates): 9
- MIC50 (Candida krusei; Pichia kudriavzevii): 0.06 µg/mL (≈ 0.0526 µM)
- MIC90 (Candida krusei; Pichia kudriavzevii): 0.06 µg/mL (≈ 0.0526 µM)
- MIC fold-shift (C. krusei ATCC 6258; ATCC 6258, WT to P20): 2
- MIC (C. krusei ATCC 6258; ATCC6258): 0.125 µg/mL (≈ 0.11 µM)
- MIC (C. krusei ATCC 6258; ATCC6258, read-out: MIC P20): 0.125 µg/mL (≈ 0.11 µM)
- Cumulative % of isolates inhibited at MIC 0.015 μg/mL (Candida dubliniensis; 11 isolates): (9.1) %
- Cumulative % of isolates inhibited at MIC 0.03 μg/mL (Candida dubliniensis; 11 isolates): (36.4) %
- Cumulative % of isolates inhibited at MIC 0.06 μg/mL (Candida dubliniensis; 11 isolates): (100.0) %
- Number of isolates inhibited at MIC 0.015 μg/mL (Candida dubliniensis; 11 isolates): 1
- Number of isolates inhibited at MIC 0.03 μg/mL (Candida dubliniensis; 11 isolates): 3
- Number of isolates inhibited at MIC 0.06 μg/mL (Candida dubliniensis; 11 isolates): 7
- MIC50 (Candida dubliniensis; Candida dubliniensis): 0.06 µg/mL (≈ 0.0526 µM)
- MIC90 (Candida dubliniensis; Candida dubliniensis): 0.06 µg/mL (≈ 0.0526 µM)
- MIC ([2]; ATCC2001|ATCC90030, 24 h, read-out: Broth MIC, ATCC 2001 wild-type, 24 h, ~50% inhibition): 0.06 µg/mL (≈ 0.0526 µM)
- MIC ([2]; ATCC2001|ATCC90030, 24 h, read-out: Broth MIC, ATCC 90030 wild-type, 24 h, ~50% inhibition): 0.06 µg/mL (≈ 0.0526 µM)
- MIC ([2]; ATCC2001|ATCC90030, ATCC 2001 spontaneous mutant, Fks2 HS1 D666N): 0.5 µg/mL (≈ 0.438 µM)
- MIC ([2]; ATCC2001|ATCC90030, ATCC 2001 spontaneous mutant, Fks2 HS1 D666Y): 0.5 µg/mL (≈ 0.438 µM)
- MIC ([2]; ATCC2001|ATCC90030, ATCC 2001 spontaneous mutant, Fks2 HS1 R665G): 0.5 µg/mL (≈ 0.438 µM)
- MIC ([2]; ATCC2001|ATCC90030, ATCC 2001 spontaneous mutant, Fks2 HS1 S663F): 1 µg/mL (≈ 0.877 µM)
- MIC ([2]; ATCC2001|ATCC90030, ATCC 2001 spontaneous mutant, Fks2 HS1 ΔF659): 4 µg/mL (≈ 3.51 µM)
- MIC ([2]; ATCC2001|ATCC90030, ATCC 2001 spontaneous mutant, Fks2 HS2 R1378S): 0.25 µg/mL (≈ 0.219 µM)
- MIC ([2]; ATCC2001|ATCC90030, ATCC 90030 spontaneous mutant, Fks2 HS1 D666H): 1 µg/mL (≈ 0.877 µM)
- MIC ([2]; ATCC2001|ATCC90030, ATCC 90030 spontaneous mutant, Fks2 HS1 ΔF659): 2 µg/mL (≈ 1.75 µM)
